Assay results taken from patent EP4813979A1, “COMPOUND FOR EGFR PROTEIN DEGRADATION AND USE THEREOF” (TYK Medicines, Inc., priority 2023, dated 2025).

What was measured:
A431 = assay: Cell anti-proliferation experiment (CTG); assay type: cell-based; details: Homo sapiens, A431 (wild-type EGFR)
Summary of the method: (§1)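 PC-9 (EGFR exon 19 del), H1975 (T790M/L858R), A431 (wild-type EGFR) and a Ba/F3 clone stably expressing mutant EGFR were seeded at 1500-2500 cells/well, left 24 h, then treated in triplicate with 1:4 dilutions up to 10,000 nM for 72 h. CTG luminescence was normalised to 0.1% DMSO and blank medium; IC50 from curve fit.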

A549 = assay: Cell anti-proliferation experiment (CTG); assay type: cell-based; details: Homo sapiens, A549 (wild-type EGFR)
Summary of the method: (§2)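 Cells were seeded at 1500–2500/well and dosed after ~24 h with compound in a 1:4 dilution series up to 10,000 nM, in triplicate. Viability was read by CTG luminescence after 72 h, normalized to the 0.1% DMSO control and medium blank, and IC50 was obtained by curve fitting.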

[1] = tested on: Baf3-19del- T790M -C797S (Baf3-DTC); assay: Cell anti-proliferation experiment (CTG); assay type: cell-based
Summary of the method: as §1

[2] = tested on: Baf3-L858R-T790M - C797S (Baf3-LTC); assay: Cell anti-proliferation experiment (CTG); assay type: cell-based
Summary of the method: as §1

H1975 = assay: Cell anti-proliferation experiment (CTG); assay type: cell-based; details: Homo sapiens, H1975 (EGFR T790M/L858R)
Summary of the method: as §1

HCC827 = assay: Cell anti-proliferation experiment (CTG); assay type: cell-based; details: Homo sapiens, HCC827 (exon 19 deletion)
Summary of the method: as §2

PC-9 = assay: Cell anti-proliferation experiment (CTG); assay type: cell-based; details: Homo sapiens, PC-9 (EGFR exon 19 deletion)
Summary of the method: as §1

[3] = Pharmacokinetic test of CD-1 mice; assay type: in vivo; parameters: AUC(0-t) / AUC(0-inf): concentration or dose not given beside the values; details: male CD-1 mice, single oral gavage (PO), plasma
Description: Plasma was collected from male CD-1 mice after a single gavage administration of the test substance. The plasma was then analyzed to calculate pharmacokinetic parameters.
The solvent is 5% DMSO + 10% Solutol HS-15 + 85% Saline.
Formulation preparation process: Accurately weighed the compound powder, added appropriate volumes of DMSO, Solutol and physiological saline in sequence, and vortexed sonicate at each step to finally form a homogeneous formulation solution.
Experimental animals were housed in the SPF-grade animal facility of Suzhou Xihua New Drug Development Co., Ltd. (License No.: SYXK(Su)2021-0019). Animals were fed normally for at least 3 days after purchase before the experiment, and each mouse was marked with a tail tag. Animals in the oral administration group were fasted overnight the day before administration, and were resumed feeding 4 hours later, with free access to water. Table 4. Sources and Number of Experimental Animals […]
Before administration, checked the state of the administration formulation and ensured its homogeneity by vortexing, stirring or shaking. Calculated the theoretical administration volume for each CD-1 mouse in each group according to the following formula. Theoretical administration volume (mL); = (Dose (mg⋅kg^−1))/(formulation concentration (mg⋅mL^−1)) × animal body weight (kg) [formula]
Table 5 Sample Collection Information
The collected blood was placed in test tubes containing the anticoagulant EDTA-K2 (15 % EDTA-K2 solution), stored on moist ice, and centrifuged within 45 min (1,500 g, 2-8 °C, 10 min). Plasma was then collected. The plasma was stored in pre-chilled centrifuge tubes, flash-frozen on dry ice, and subsequently stored in an ultra-low temperature freezer at -60 °C or lower until shipment.
A quantitative detection method for the analyte was established using Shimadzu liquid chromatography and Triple Quad™ 6500+AB mass spectrometry. The concentration of the parent drug in plasma was analyzed. The analytical results were controlled for variation using quality control samples, with the accuracy of the quality control samples expected to be between 80% and 120%.
The main pharmacokinetic parameters were calculated using a non-compartmental model in Winnonlin Phoenix software. These parameters included the area under the curve (AUC(0-t) and AUC(0-∞)), elimination half-life (T1/2), maximum plasma concentration (Cmax ), and time to reach maximum plasma concentration (Tmax).

[4] = A-431, 72 h, number after the class symbol
[5] = A549, 72 h, number after the class symbol
[6] = 72 h, number after the class symbol
[7] = NCI-H1975, 72 h, number after the class symbol
[8] = HCC827, 72 h, number after the class symbol
[9] = PC-9, 72 h, number after the class symbol

Compound	IC50 (A431; A-431, 72 h, class symbol)	IC50 (A431; [4])	IC50 (A549; A549, 72 h, class symbol)	IC50 (A549; [5])	IC50 ([1]; 72 h, class symbol)	IC50 [1, 6]	IC50 ([2]; 72 h, class symbol)	IC50 [2, 6]	IC50 (H1975; NCI-H1975, 72 h, class symbol)	IC50 (H1975; [7])	IC50 (HCC827; HCC827, 72 h, class symbol)	IC50 (HCC827; [8])	IC50 (PC-9; PC-9, 72 h, class symbol)	IC50 (PC-9; [9])	also measured
COc1cc(N2CCC(CN3CCN(c4ccc5c(c4)C(=O)N(C4CCC(=O)NC4=O)C5=O)CC3)CC2)c(-c2cnn(C)c2)cc1Nc1ncc(Br)c(Nc2ccc(C3CC3)cc2P(C)(C)=O)n1 (stereo not drawn) [DZL-1, reference compound]	> 1000 nM	> 5000 nM	> 1000 nM	> 5000 nM	10 to 100 nM	14.5 nM	10 to 100 nM	13.6 nM	10 to 100 nM	54.8 nM	100 to 1000 nM	105 nM	100 to 1000 nM	205 nM	–
CCc1cc(Nc2ncc(Cl)c(Nc3ccccc3C(=O)NC)n2)c(OC)cc1N1CCN(C(=O)CN2CCC(c3cc4c(cc3F)c(N3CCC(=O)NC3=O)nn4C)C(F)(F)C2)CC1 (stereo not drawn) [TA-003]	–	–	–	–	–	–	–	–	–	–	–	–	–	–	IC50 (A431; A-431, 72 hours, class symbol): > 1000 nM; IC50 (A549; 72 hours, class symbol): > 1000 nM; IC50 ([1]; 72 hours, class symbol): 100 to 1000 nM; IC50 ([2]; 72 hours, class symbol): 100 to 1000 nM; IC50 (H1975; NCI-H1975, 72 hours, class symbol): < 10 nM; IC50 (HCC827; 72 hours, class symbol): > 1000 nM; IC50 (PC-9; 72 hours, class symbol): > 1000 nM; HL_ [3]: 2.45 h; AUC(0-inf) ([3]; mouse): 20700 ng·h/mL; AUC(0-t) ([3]; mouse): 20600 ng·h/mL; Cmax ([3]; mouse): 3410 ng/mL; MRT last ([3]; mouse): 5.11 h; Tmax ([3]; mouse): 4 h
CCc1cc(Nc2ncc(Cl)c(Nc3ccccc3P(C)(C)=O)n2)c(OC)cc1N1CC2(CCN(C(=O)CN3CCC(c4cc5c(cc4F)c(N4CCC(=O)NC4=O)nn5C)C(F)(F)C3)CC2)C1 (stereo not drawn) [TA-023]	> 1000 nM	1180 nM	> 1000 nM	1260 nM	100 to 1000 nM	202 nM	< 10 nM	8.4 nM	10 to 100 nM	14.7 nM	100 to 1000 nM	593 nM	100 to 1000 nM	461 nM	–
CCc1cc(Nc2ncc(Cl)c(Nc3ccccc3P(C)(C)=O)n2)c(OC)cc1N1CCN(C(=O)CN2CCC(c3cc4c(cc3F)c(N3CCC(=O)NC3=O)nn4C)C(F)(F)C2)CC1 (stereo not drawn) [TC-157]	> 1000 nM	1650 nM	100 to 1000 nM	948 nM	< 10 nM	4.1 nM	< 10 nM	4.1 nM	10 to 100 nM	24 nM	100 to 1000 nM	812 nM	100 to 1000 nM	349 nM	–
CCc1cc(Nc2ncc(Cl)c(Nc3ccccc3P(C)(C)=O)n2)c(OC)cc1N1CCN(C(=O)CN2CCC(c3cc4c(cc3F)c(N3CCC(=O)NC3=O)nn4C)CC2)CC1 [TC-213]	> 1000 nM	1340 nM	> 1000 nM	1770 nM	< 10 nM	8.9 nM	< 10 nM	0.8 nM	10 to 100 nM	35.9 nM	10 to 100 nM	53 nM	100 to 1000 nM	505 nM	–
